Measurements as given in paper doi:10.1101/2024.08.25.609621 (bioRxiv, 2024).
Values after ≈ are worked out from the molar mass of the structure shown. Values joined by “and” are separate entries in the source; they are usually repeats but may differ in a detail not shown here. Identical values can stand only once. Like-named read-outs stand apart in the source and are kept apart here.

Tests used:
Microsomal stability = assay type: in vitro ADME, mouse; settings: pH 7.4
Procedure: The assay was carried out in 96-well plates at 37°C. Reaction mixtures (25 μl) contained a final concentration of 1 μM compound, 0.5 mg/ml liver microsomes protein, and 1 mM NADPH and/or 1 mM UDPGA (with alamethicin) in 100 mM potassium phosphate (pH 7.4) with 3 mM MgCl2. After 0, 15, 30, and 60 minutes, 150 μl of quench solution (100% acetonitrile with 0.1% formic acid) with internal standard was transferred to each well. Reactions containing the same components except the NADPH were prepared as the negative control. Plates were sealed, vortexed, and centrifuged at 4°C for 15 minutes at 4000 rpm.
The extent of metabolism was calculated as the disappearance of compounds, compared to the 0-min time incubation.

[1] = molecular target: SARS-CoV-2 NSP3 macrodomain (Mac1), P43 crystal form (Severe acute respiratory syndrome coronavirus 2, UniProt P0DTD1); assay type: binding; settings: for 1-BDC: PanDDA background density correction; for Total number of conformations: ligand conformations modeled in Mac1 crystal structure; for 2*(1-BDC) (%): occupancy estimate from PanDDA 1-BDC
[2] = molecular target: SARS-CoV-2 NSP3 macrodomain (Mac1) (Severe acute respiratory syndrome coronavirus 2, UniProt P0DTD1); test: biochemical; assay type: binding
Kinetic solubility = settings: phosphate buffered saline, pH 7.4, aqueous buffer, kinetic from dmso stock
in vitro = settings: human; for Papp A→B at 1 h / Papp B→A at 1 h: Caco-2
Procedure: (§1) Caco-2 cell plates were obtained commercially and were maintained for 21 days at 37°C with 5% CO2. Cells were washed with Hank’s Balanced Salt Solution (HBSS) with 5 mM HEPES for 30 minutes before starting the experiment. Test compound solutions are prepared by diluting DMSO stock into HBSS buffer, resulting in a final DMSO concentration of 0.1%. Prior to the assay, cell monolayer integrity was verified by […] electrical resistance (TEER) to ensure that wells have resistance above the acceptance cut-off (1 kΩ). Transport experiments were initiated by adding test compounds to the apical (75 μl) or basal (250 μl) side. Transport plates were incubated at 37°C in a humidified incubator with 5% CO2. Samples were taken from the donor and acceptor compartments after one hour and analyzed by liquid chromatography with tandem mass spectrometry (LC/MS/MS) using an AB Sciex API 4000 instrument, coupled to a Shimadzu LC-20AD LC Pump system. Samples were separated using a Waters Atlantis T3 dC18 reverse phase HPLC column (20 mm × 2.1 mm) at a flow rate of 0.5 ml/min. The mobile phase consisted of 0.1% formic acid in acetonitrile (solvent A) and 0.1% formic acid in water (solvent B).
(§2) Apparent permeability (Papp) values were calculated using the following equation: Papp=(dQ/dt)/A/C0 where dQ/dt is the initial rate of compound transport across the cell monolayer, A is the surface area of the filter membrane, and C0 is the initial concentration of the test compound, calculated for each direction using a four-point calibration curve by LC/MS/MS.
(§3) Net flux ratio between the two directional transports was calculated by the following equation: Ratio=PappB-A/PappA-B where PappB-A and PappA-B represent the apparent permeability of compounds from the basal-to-apical and apical-to-basal side of the cellular monolayer, respectively. Recovery was calculated based on the compound concentration at the end of the experiment, compared to that at the beginning of the experiment, adjusted for volumes.

Caco-2 cells = test: in vitro; settings: human, Caco-2, 1 h
Procedure: as §1, §2, §3

human macrodomain Targ1 = molecular target: T1, human macrodomain Targ1 (Homo sapiens, UniProt Q9Y530); test: HTRF peptide displacement assay, Targ1; assay type: binding; settings: for IC50: dose-response; for binding to the human macrodomain Targ1: in words
T1 sequence (Q9Y530 with tags, fused parts or gaps): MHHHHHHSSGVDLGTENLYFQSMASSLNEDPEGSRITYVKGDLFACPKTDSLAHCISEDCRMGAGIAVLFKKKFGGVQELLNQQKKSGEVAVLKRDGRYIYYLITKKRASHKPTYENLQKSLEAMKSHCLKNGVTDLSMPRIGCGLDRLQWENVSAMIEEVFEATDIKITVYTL

[3] = molecular target: T2, human macrodomain MacroD2 (Homo sapiens, UniProt A1Z1Q3); test: HTRF peptide displacement assay, MacroD2; assay type: binding; settings: for IC50: dose-response; for binding to the human macrodomain MacroD2: in words
T2 sequence (A1Z1Q3 with tags, fused parts or gaps): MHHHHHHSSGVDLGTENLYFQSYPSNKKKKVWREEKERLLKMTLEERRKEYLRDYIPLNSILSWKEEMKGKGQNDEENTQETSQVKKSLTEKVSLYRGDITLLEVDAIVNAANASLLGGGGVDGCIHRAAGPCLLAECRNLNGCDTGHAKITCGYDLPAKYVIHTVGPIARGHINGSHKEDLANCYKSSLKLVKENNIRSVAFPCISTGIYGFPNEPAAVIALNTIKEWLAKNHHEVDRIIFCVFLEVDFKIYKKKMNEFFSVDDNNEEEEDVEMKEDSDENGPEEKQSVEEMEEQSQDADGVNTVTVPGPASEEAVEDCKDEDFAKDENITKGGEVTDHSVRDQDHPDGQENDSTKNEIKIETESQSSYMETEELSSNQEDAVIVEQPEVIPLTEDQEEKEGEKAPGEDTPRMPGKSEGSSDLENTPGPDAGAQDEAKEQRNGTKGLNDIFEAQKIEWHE

[4] = preliminary screen, compound at 200 μM, mean of 3-4 technical replicates, read-out: % competition in HTRF assay
[5] = Caco-2, Caco-2 ratio B-A/A-B, net flux ratio
[6] = crystal soak 10 mM, P43 crystals

Structure (SMILES)	half-life at 1 µM (Microsomal stability; mouse, microsomes)	microsomal CLint at 1 µM (Microsomal stability; mouse, microsomes)	1-BDC [1]	Total number of conformations [1]	2*(1-BDC) (%) [1]	Hill slope ([2]; HTRF dose-response fit, Mac1)	inhibition at 200 µM [2, 4]	solubility kinetic at […] (Kinetic solubility)	Papp A→B at 1 h (in vitro)	Papp B→A at 1 h (in vitro)	efflux ratio at 1 h (in vitro; [5])	efflux ratio at 1 h (in vitro; Caco-2, Ratio (B-A/A-B))	Recover Rate (%) (Caco-2 cells)	binding to the human macrodomain Targ1 (human macrodomain Targ1)	binding to the human macrodomain MacroD2 [3]	also measured
CC(C)(O)[C@H]1CCCN1c1ncnc2[nH]ccc12 [AVI-607, 2-[(2R)-1-{7H-Pyrrolo[2,3-d]pyrimidin-4-yl}pyrrolidin-2-yl]propan-2-ol]	19 min	73 µL/min/mg	0.44	1	88%	1.5	100%	518 µM (≈ 128 µg/mL)	22 ×10⁻⁶ cm/s	15.7 ×10⁻⁶ cm/s	0.7	0.71	93%	none	none	microsomal CLint at 1 µM (Microsomal stability; liver microsomes, mouse microsomes, read-out: CLint (mouse) (µl/min/mg protein), mean): 73 µL/min/mg; Pandda run, overall: Modeling comment ([1]; crystal soak, soak concentration 10 mM): High occupancy, use manual refinement; Pandda run, overall: Hit ([1]; crystal soak, soak concentration 10 mM, TRUE = ligand hit): TRUE; X-ray crystallography: Binding site ([1]; site where the ligand is bound in the X-ray crystal structure): Adenosine; PanDDA run, DMSO background map: 1-BDC ([1]; soak concentration 10 mM): 0.42 and 0.44; PanDDA run, DMSO background map: Hit ([1]; soak concentration 10 mM): TRUE; inhibition at 200 µM ([2]; Single dose, concentration 200 μM, read-out: SARS CoV-2 macrodomain HTRF assay: Average % competition): 100%; SARS CoV-2 macrodomain HTRF assay: Hillslope ([2]; dose-response fit): 1.5; IC50 (human macrodomain Targ1; read-out: Human Targ1 HTRF assay: IC50): > 1 mM; IC50 ([3]; read-out: Human MacroD2 HTRF assay: IC50): > 1 mM
CC(c1ccccc1)C(CO)Nc1ncnc2[nH]ccc12 (stereo not drawn) [AVI-3669]	8.3 min	166 µL/min/mg	0.14	1	28%	1.2	98%	529 µM (≈ 149 µg/mL)	19.4 ×10⁻⁶ cm/s	14.5 ×10⁻⁶ cm/s	0.7	0.75	93%	none	none	microsomal CLint at 1 µM (Microsomal stability; liver microsomes, mouse microsome stability, read-out: CLint (mouse) (µl/min/mg protein), mean): 166 µL/min/mg; X-ray crystal structure ([1]; X-ray crystal structure determined (TRUE)): TRUE; Pandda run, overall: Hit [1, 6]: TRUE; Pandda run, overall: Modeled [1, 6]: TRUE; PanDDA run, DMSO background map: 1-BDC ([1]; crystal soak 10 mM): 0.14; PanDDA run, DMSO background map: Hit ([1]; crystal soak 10 mM): TRUE; Binding site ([1]; site of ligand in X-ray crystal structure): Adenosine; Hill slope ([2]; SARS CoV-2 macrodomain HTRF assay, dose-response): 1.2; inhibition at 200 µM ([2]; Single dose, concentration 200 μM, read-out: Average % competition): 98%; IC50 (human macrodomain Targ1; Human Targ1 HTRF assay, read-out: IC50): > 1 mM; IC50 ([3]; Human MacroD2 HTRF assay, read-out: IC50): > 1 mM
